Where “and” joins values, the source holds several entries; their conditions need not be identical. Equal entries are not always repeated. Where two headings read alike, the source gives them in different places.
Experiment: Whole-blood PK study (IV, IP and PO) in male CD-1 mice
Format: in vivo, mouse
Details: for Vd: read-out: Vss; for Tmax: CD-1, whole blood
Experimental: Nine male CD-1 mice (25–35 g) were obtained from Hilltop Labs. Duration of acclimation was at least two days. Animals were randomly assigned to the three dose groups (IV, PO, intraperitoneal (IP), N = 3 per group), healthy at the start of the trial, housed one per cage (conventional type with wood chip bedding material), identified by a cage label and maintained in a well-controlled temperature (20–24 C) and humidity (30%-70%) environment with 12 h light/dark cycles. Animals intended for IV dosing were fitted with a jugular vein cannula (JVC, procedure see rat plasma PK study above). The study was not blinded. Food was withheld from the animals for a minimum of 12 h prior to test article administration until 4 h post-dose. Water was offered ad libitum.
C16 was dosed in cassette together with two undisclosed compounds of similar chemical structure. The dose of each test article was 1 mg/kg (IV, JVC, 0.5 mg/mL) or 10 mg/kg (IP and PO gavage, 2 mg/mL). Two respective dosing solutions were prepared (protocol see above) containing 0.5 and 2 mg/mL of C16 (and equal concentrations of the other two test articles) in 20% DMSO / 10% (DMSO / Cremophor EL 1:1) / 70% H2O. Formulations were prepared one day prior to dosing and stored at 4 °C.
Blood samples were taken pre-dose and 5 (except for PO administration), 15, 30 min, 1, 2, 4, and 8 h after dosing. The samples were collected via the tail vein or by cardiac puncture (8 h time point). Blood (25 μL) was collected and pipetted into a tube with 25 μL heparinized water (1 μL of sodium heparin (1000 unit/ml) + 24 μL water) within 30 seconds of collection. The sample was pipetted up and down five times, immediately frozen on dry ice and stored at -60°C to -80°C until analyzed. No necropsy was performed.
Pharmacokinetic parameters were estimated by a non-compartmental model using WinNonlin (v5.2.1 or higher) software. The maximum plasma/blood concentrations (c0) after IV dosing were estimated by extrapolation of the first two time points back to t = 0. The maximum blood concentration (cmax) and the time to reach maximum blood drug concentration (tmax) after PO dosing were derived from the data. The area under the time-concentration curve (AUC) was calculated using the linear trapezoidal rule with calculation to the last quantifiable data point, and with extrapolation to infinity if applicable. Plasma/blood half-life (t1/2) was calculated from 0.693/slope of the terminal elimination phase. Mean residence time (MRT) was calculated by dividing the area under the moment curve (AUMC) by the AUC. Clearance (CL) was calculated from dose/AUC. Steady-state volume of distribution (Vss) was calculated from CL*MRT. Bioavailability was determined by dividing the individual dose-normalized PO AUC values by the respective average dose-normalized intravenous (IV) AUC value. Samples that were below the limit of quantification were not used in the calculation of averages, and were treated as zero for pharmacokinetic data analysis. […]
Sprague-Dawley rats at 10 mg/kg (in 100% DMSO). […]
c Bioavailability determined by dividing the individual dose normalized oral AUC last by the average dose normalized intravenous AUC last value. […]
The dosing solution was prepared as a cassette to contain all three test articles in the same solutions using a vehicle
consisting of 20% DMSO/10% (DMSO/Cremophor EL 1:1)/70% Milli-Q water.
Individual blood concentrations and pharmacokinetic parameters are shown in Table H through Table J. All data are
expressed as ng/mL of the free drug. Samples that were below the limit of quantification were not used in the
calculation of averages. Concentration versus time data are plotted in Fig D through Fig F.
Table H. Individual blood concentrations (ng/mL) and PK parameters for C16 after IV administration in male CD-1 mice at 1 mg/kg.
t (h) 0 (pre-dose) BLOQ BLOQ BLOQ
(1 picture or pasted object on this page, not shown here)

[1] = male, CD-1, mouse, whole blood, ip, 10 mg/kg, male CD-1 mouse, IP 10 mg/kg, average
[2] = male, CD-1, mouse, whole blood, ip, 10 mg/kg, mouse blood, IP 10 mg/kg, individual animals 4-6
[3] = male, CD-1, mouse, whole blood, iv, 1 mg/kg, male CD-1 mouse, IV 1 mg/kg, average
[4] = male, CD-1, mouse, whole blood, iv, 1 mg/kg, mouse blood, IV 1 mg/kg, individual animals 1-3
[5] = male, CD-1, mouse, whole blood, po, 10 mg/kg, male CD-1 mouse, PO 10 mg/kg, average
[6] = mouse blood, IP 10 mg/kg, individual animals 4-6, 10 mg/kg
[7] = mouse blood, IV 1 mg/kg, individual animals 1-3, 1 mg/kg
[8] = mouse blood, PO 10 mg/kg, individual animals 7-9, 10 mg/kg
[9] = whole blood, male CD-1 mouse, IP 10 mg/kg, average

COc1cc(C(=O)/C=C/c2ccc(F)cc2)cc(OC)c1OC [C16, 4-fluoro-3’,4’,5’-trimethoxychalcone]
time of maximum blood concentration (male CD-1 mouse, IP 10 mg/kg): 15 min
time of maximum blood concentration (male CD-1 mouse, PO 10 mg/kg): 15 min
AUC(0-inf) [1]: 114 ng·h/mL
AUC(0-t) [1]: 109 ng·h/mL
MRT last [1]: 48 min
half-life [1]: 48 min
AUC(0-inf) [2]: 101 ng·h/mL
AUC(0-t) [2]: 99.2 ng·h/mL
MRT last [2]: 59.5 min
half-life [2]: 38.2 min
Bioavailability (male, CD-1, mouse, whole blood, ip, 10 mg/kg, mouse blood, IP 10 mg/kg, individual animals 4-6, read-out: Bioavailability): 49.7%
cmax (male, CD-1, mouse, whole blood, ip, 10 mg/kg, mouse blood, IP 10 mg/kg, individual animals 4-6, read-out: cmax): 90.3 ng/mL
concentration at 0.25 h (male, CD-1, mouse, whole blood, ip, 10 mg/kg, mouse, IP 10 mg/kg, 0.25 h, animals 4-6, read-out: Individual blood concentration): 90.3 ng/mL
concentration at 0.5 h (male, CD-1, mouse, whole blood, ip, 10 mg/kg, mouse, IP 10 mg/kg, 0.50 h, animals 4-6, read-out: Individual blood concentration): 48.2 ng/mL
concentration at 1 h (male, CD-1, mouse, whole blood, ip, 10 mg/kg, mouse, IP 10 mg/kg, 1.0 h, animals 4-6, read-out: Individual blood concentration): 49.2 ng/mL
concentration at 2 h (male, CD-1, mouse, whole blood, ip, 10 mg/kg, mouse, IP 10 mg/kg, 2.0 h, animals 4-6, read-out: Individual blood concentration): 13.4 ng/mL
Bioavailability (male, CD-1, mouse, whole blood, ip, 10 mg/kg, whole blood, male CD-1 mouse, IP 10 mg/kg, average, read-out: Bioavailability): 54.7%
cmax (male, CD-1, mouse, whole blood, ip, 10 mg/kg, whole blood, male CD-1 mouse, IP 10 mg/kg, average, read-out: cmax): 107 ng/mL
AUC(0-inf) [3]: 22.4 ng·h/mL
AUC(0-t) [3]: 20 ng·h/mL
MRT last [3]: 26 min
clearance [3]: 750 mL/min/kg
half-life [3]: 44.8 min
C0 (male, CD-1, mouse, whole blood, iv, 1 mg/kg, male CD-1 mouse, IV 1 mg/kg, average, extrapolated to t = 0): 76 ng/mL
AUC(0-inf) [4]: 22.9 ng·h/mL
AUC(0-t) [4]: 20.2 ng·h/mL
MRT last [4]: 25.6 min
clearance [4]: 727 mL/min/kg
half-life [4]: 49.4 min
Vd [4]: 32.8 L/kg
concentration at 0.083 h (male, CD-1, mouse, whole blood, iv, 1 mg/kg, mouse, IV 1 mg/kg, 0.083 h, animals 1-3, read-out: Individual blood concentration): 46.4 ng/mL
concentration at 0.25 h (male, CD-1, mouse, whole blood, iv, 1 mg/kg, mouse, IV 1 mg/kg, 0.25 h, animals 1-3, read-out: Individual blood concentration): 17.3 ng/mL
concentration at 0.5 h (male, CD-1, mouse, whole blood, iv, 1 mg/kg, mouse, IV 1 mg/kg, 0.50 h, animals 1-3, read-out: Individual blood concentration): 8.4 ng/mL
concentration at 1 h (male, CD-1, mouse, whole blood, iv, 1 mg/kg, mouse, IV 1 mg/kg, 1.0 h, animals 1-3, read-out: Individual blood concentration): 4.5 ng/mL
concentration at 2 h (male, CD-1, mouse, whole blood, iv, 1 mg/kg, mouse, IV 1 mg/kg, 2.0 h, animals 1-3, read-out: Individual blood concentration): 2.28 ng/mL
Vd (male, CD-1, mouse, whole blood, iv, 1 mg/kg, whole blood, male CD-1 mouse, IV 1 mg/kg, average): 32.6 L/kg
AUC(0-t) [5]: 20.9 ng·h/mL
MRT last [5]: 82.8 min
half-life (male, CD-1, mouse, whole blood, po, 10 mg/kg, mouse blood, PO 10 mg/kg, individual animal 7): 176 min
AUC(0-t) (male, CD-1, mouse, whole blood, po, 10 mg/kg, mouse blood, PO 10 mg/kg, individual animals 7-9): 23.2 ng·h/mL
Bioavailability (male, CD-1, mouse, whole blood, po, 10 mg/kg, mouse blood, PO 10 mg/kg, individual animals 7-9, read-out: Bioavailability): 11.6%
Bioavailability (male, CD-1, mouse, whole blood, po, 10 mg/kg, whole blood, male CD-1 mouse, PO 10 mg/kg, average, read-out: Bioavailability): 10.5%
cmax (male, CD-1, mouse, whole blood, po, 10 mg/kg, whole blood, male CD-1 mouse, PO 10 mg/kg, average, read-out: cmax): 12.5 ng/mL
Tmax (male, mouse blood, IP 10 mg/kg, individual animals 4-6): 15 min
Tmax (male, mouse blood, IV 1 mg/kg, individual animals 1-3): 0 min
Tmax (male, mouse blood, PO 10 mg/kg, individual animals 7-9): 15 min
AUClast [6]: 127 ng·h/mL and 101 ng·h/mL
AUC∞ [6]: 134 ng·h/mL and 106 ng·h/mL
Bioavailability [6]: 63.7% and 50.6%
Dose-normalized AUClast [6]: 9.92 kg·ng·h/mL/mg and 12.7 kg·ng·h/mL/mg and 10.1 kg·ng·h/mL/mg
Dose-normalized AUC∞ [6]: 10.1 kg·ng·h/mL/mg and 13.4 kg·ng·h/mL/mg and 10.6 kg·ng·h/mL/mg
MRTlast [6]: 57 min and 55 min
cmax [6]: 106 ng/mL and 125 ng/mL
t1/2 [6]: 51.7 min and 54.1 min
AUClast [7]: 22.2 ng·h/mL and 17.5 ng·h/mL
AUC∞ [7]: 24.7 ng·h/mL and 19.6 ng·h/mL
CL [7]: 673 mL/min/kg and 850 mL/min/kg
MRTlast [7]: 23.9 min and 28.6 min
Vss [7]: 27.2 L/kg and 37.7 L/kg
c0 [7]: 75.8 ng/mL and 103 ng/mL and 49.1 ng/mL
t1/2 [7]: 46.8 min and 38.2 min
AUClast [8]: 15.1 ng·h/mL and 24.5 ng·h/mL
Bioavailability [8]: 7.56% and 12.3%
Dose-normalized AUClast [8]: 2.32 kg·ng·h/mL/mg and 1.51 kg·ng·h/mL/mg and 2.45 kg·ng·h/mL/mg
MRTlast [8]: 100 min and 103 min and 46 min
cmax [8]: 8.76 ng/mL and 17.8 ng/mL and 10.9 ng/mL
Adverse reactions (mouse, 1 mg/kg IV, 10 mg/kg IP or PO, cassette): No adverse reactions were observed
Individual blood concentration (mouse, IP 10 mg/kg, 0.083 h, animals 4-6, 10 mg/kg): 28.2 ng/mL and 68.6 ng/mL and 64.5 ng/mL
Individual blood concentration (mouse, IP 10 mg/kg, 0.25 h, animals 4-6, 10 mg/kg): 106 ng/mL and 125 ng/mL
Individual blood concentration (mouse, IP 10 mg/kg, 0.50 h, animals 4-6, 10 mg/kg): 94.4 ng/mL and 56.3 ng/mL
Individual blood concentration (mouse, IP 10 mg/kg, 1.0 h, animals 4-6, 10 mg/kg): 48.0 ng/mL and 32.1 ng/mL
Individual blood concentration (mouse, IP 10 mg/kg, 2.0 h, animals 4-6, 10 mg/kg): 13.3 ng/mL and 12.1 ng/mL
Individual blood concentration (mouse, IP 10 mg/kg, 4.0 h, animals 4-6, 10 mg/kg): 1.79 ng/mL and 5.29 ng/mL and 3.62 ng/mL
Individual blood concentration (mouse, IP 10 mg/kg, 8.0 h, animals 4-6): BLOQ (BLOQ: Below the limit of quantitation (1 ng/mL))
Individual blood concentration (mouse, IV 1 mg/kg, 0.083 h, animals 1-3, 1 mg/kg): 54.4 ng/mL and 33.4 ng/mL
Individual blood concentration (mouse, IV 1 mg/kg, 0.25 h, animals 1-3, 1 mg/kg): 15.2 ng/mL and 15.4 ng/mL
Individual blood concentration (mouse, IV 1 mg/kg, 0.50 h, animals 1-3, 1 mg/kg): 8.57 ng/mL and 10.9 ng/mL
Individual blood concentration (mouse, IV 1 mg/kg, 1.0 h, animals 1-3, 1 mg/kg): 4.93 ng/mL and 3.76 ng/mL
Individual blood concentration (mouse, IV 1 mg/kg, 2.0 h, animals 1-3, 1 mg/kg): 2.21 ng/mL and 2.30 ng/mL
Individual blood concentration (mouse, IV 1 mg/kg, 4.0 h, animals 1-3): BLOQ (BLOQ: Below the limit of quantitation (1 ng/mL))
Individual blood concentration (mouse, IV 1 mg/kg, 8.0 h, animals 1-3): BLOQ (BLOQ: Below the limit of quantitation (1 ng/mL))
Individual blood concentration (mouse, PO 10 mg/kg, 0.25 h, animals 7-9, 10 mg/kg): 8.76 ng/mL and 17.8 ng/mL and 10.9 ng/mL
Individual blood concentration (mouse, PO 10 mg/kg, 0.50 h, animals 7-9, 10 mg/kg): 7.95 ng/mL and 12.4 ng/mL and 5.89 ng/mL
Individual blood concentration (mouse, PO 10 mg/kg, 1.0 h, animals 7-9, 10 mg/kg): 7.01 ng/mL and 5.15 ng/mL and 3.45 ng/mL
Individual blood concentration (mouse, PO 10 mg/kg, 2.0 h, animals 7-9, 10 mg/kg): 6.19 ng/mL and 4.28 ng/mL and 10.5 ng/mL
Individual blood concentration (mouse, PO 10 mg/kg, 4.0 h, animals 7-9, 10 mg/kg): 3.44 ng/mL and BLOQ (BLOQ: Below the limit of quantitation (1 ng/mL)) and 1.26 ng/mL
Individual blood concentration (mouse, PO 10 mg/kg, 8.0 h, animals 7-9): BLOQ (BLOQ: Below the limit of quantitation (1 ng/mL))
Dose-normalized AUClast [9]: 10.9 kg·ng·h/mL/mg
Dose-normalized AUC∞ [9]: 11.4 kg·ng·h/mL/mg
Dose-normalized AUClast (whole blood, male CD-1 mouse, PO 10 mg/kg, average): 2.09 kg·ng·h/mL/mg

Reference: PMC5823406, “Vehicle development, pharmacokinetics and toxicity of the anti-invasive agent 4-fluoro-3’,4’,5’-trimethoxychalcone in rodents” (PLoS ONE, 2018)
